US20230374112A1, “Bioactive Collagen Peptides, Method Of Production Thereof, And Use Thereof” (CORPORATION GENACOL CANADA INC., priority 2020, published 2023)
Like-named read-outs stand apart in the source and are kept apart here. Non-standard residues stand in square brackets, D forms with d. Residues, ends and D or L forms follow the SMILES beside them. No end group written: not given here. Hyp = O=C(O)[C@@H]1C[C@@H](O)CN1

What was measured:
[1] = system: HIEC-6/HepG2 cell coculture system
Experimental: Based on the daily dose used in the clinical trials and the current recommendations of the bottle, 1200 mg of Genacol CH product (bovine) or a generic CH product (bovine) was added (3% w/v) to sterile ddH2O (Bernado & Azarcon, 2012; Bruyère et al., 2012; Feliciano et al., 2017). Three independent digestions for each CH product were completed. The vessels were placed in a 37° C. water bath, with continuous agitation. A pepsin solution was added, the pH adjusted to 2 and incubated for 30 min. Then, a bile solution was added, the pH adjusted to 7.5 and incubated for 90 min at 37° C. Pepsin (4% w/w protein basis) and pancreatin (4% w/w protein basis) were added (Aleman et al., 2013). The pancreatin digestion was stopped with the addition of NaOH, until the pH was 10 and the resulting digesta was cooled and frozen at −80° C. Digesta subsamples were taken and filtered using 0.2 μm syringe filters.
The final digesta was filtered using a molecular weight cut off (MWCO) of 10 kDa in a stirred Amicon™ ultrafiltration membrane reactor at 4° C. under a nitrogen gas pressure of 40 psi (Iskandar et al., 2015). The filtrates were freeze-dried at −50 to −60° C. and 0.85 mBar (0.64 mm Hg) (Gamma 1-16 LSC, Christ, Osterode am Harz, Germany) and stored at −80° C. until used in cell culture.
Two bovine-sourced CH products were used: Original Formula® (Genacol, Blainville, QC) (CH-GL) and a generic brand (such as Selection™, Uniprix, Quebec, Canada) (CH-GR). HIEC-6 (ATCC® CRL-3266™) and Hep G2 (ATCC® HB-8065™) cells were purchased from ATCC to represent the gastrointestinal and liver wall lining, respectively. HIEC-6 cells were cultured using OptiMEM™ 1 Reduced Serum Medium (Gibco Catalog No. 31985) with 20 mM HEPES, 10 mM GlutaMAX™ (Gibco Catalog No. 35050), 10 ng/mL Epidermal Growth Factor, 4% fetal bovine serum (FBS). HepG2 cells were grown using ATCC-formulated Eagle's Minimum Essential Medium (Catalog No. 30-2003), with 10% FBS. Cells were maintained at 37° C. with 90% relative humidity (RH) and 5% C02 in culture medium as described herein.
HIEC-6/HepG2 cell coculture system was used to determine the bioavailability of key bioactive peptides from CHs after digestion. HIEC-6 and HepG2 cells were cultured separately but then later combined in a transwell system.
HIEC-6 cells were seeded onto 24-well polyester (PET) ThinCert™ inserts from Greiner Bio-One (Kremsmünster, Austria) at a density of 1×10^5 cells/well. The medium was changed every 2 days and the cells were grown for a total of 8-9 days. Transepithelial electrical resistance (TEER) was measured using a volt-ohmmeter to assess integrity of monolayer. […] Three individual plate experiments were completed for each CH product.
At time 0, the apical medium was replaced with medium containing 2 mg/ml of freeze-dried CH dissolved in medium using either the Genacol (GL) peptide or the Generic (GR) CH products. HepG2 cells were added to the basolateral side of the transwell (1 million cells/mL). The plates were incubated for 2 h at 37° C., 5% C02. Subsamples were taken at time 0, and after 2 h.

[2] = human, in vivo, po, 80 mg/kg; cited from earlier work
Caco-2 cells = conditions: cited from earlier work
[3] = target: dipeptidyl peptidase-4 (DPP-IV) (Homo sapiens, UniProt P27487); conditions: literature; cited from earlier work
[4] = cited from earlier work

dipeptidyl peptidase-4 (DPP-IV), sequence (P27487 whole entry, species assumed): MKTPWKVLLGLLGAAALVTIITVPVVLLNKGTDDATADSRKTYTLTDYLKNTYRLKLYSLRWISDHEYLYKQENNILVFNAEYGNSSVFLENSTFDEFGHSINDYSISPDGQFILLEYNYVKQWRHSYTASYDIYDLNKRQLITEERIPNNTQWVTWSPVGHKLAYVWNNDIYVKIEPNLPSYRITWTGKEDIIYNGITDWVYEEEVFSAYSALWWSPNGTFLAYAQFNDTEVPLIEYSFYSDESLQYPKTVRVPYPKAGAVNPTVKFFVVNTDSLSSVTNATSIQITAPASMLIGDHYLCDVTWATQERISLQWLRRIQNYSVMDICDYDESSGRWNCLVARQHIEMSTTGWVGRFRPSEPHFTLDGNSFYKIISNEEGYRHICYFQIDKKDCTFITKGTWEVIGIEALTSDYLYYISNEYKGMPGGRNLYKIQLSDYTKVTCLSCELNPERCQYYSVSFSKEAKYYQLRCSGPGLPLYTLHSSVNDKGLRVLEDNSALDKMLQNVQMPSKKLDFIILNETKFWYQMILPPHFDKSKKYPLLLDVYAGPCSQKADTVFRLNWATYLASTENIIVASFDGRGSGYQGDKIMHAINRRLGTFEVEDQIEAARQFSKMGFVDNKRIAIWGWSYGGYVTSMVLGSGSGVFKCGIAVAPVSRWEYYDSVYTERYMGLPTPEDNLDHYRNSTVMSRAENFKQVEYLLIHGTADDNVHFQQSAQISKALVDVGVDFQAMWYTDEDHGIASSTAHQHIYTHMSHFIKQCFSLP

| Peptide concentration, Basolateral T0 [1] [µg/mL] | Compound | permeability ([4]; not told) [%] | also measured |
| --- | --- | --- | --- |
| 0 ± 0 | C[C@H](N)C(=O)N1C[C@H](O)C[C@H]1C(=O)O [Ala-Hyp] (H-Ala-[Hyp]-OH; N-terminus and C-terminus assumed) | – | – |
| 0 ± 0 | NCC(=O)N1CCC[C@H]1C(=O)N1C[C@H](O)C[C@H]1C(=O)O [Gly-Pro-Hyp] (H-Gly-Pro-[Hyp]-OH; N-terminus and C-terminus assumed) | – | greatest content found in the blood [2]: ~22 µM; time of peak blood content [2]: 1 h; percentage transported across the cell monolayer (Caco-2 cells): 3.59% |
| 0 ± 0 | NCC(=O)N1CCC[C@H]1C(=O)O [Gly-Pro] (H-Gly-Pro-OH; N-terminus and C-terminus assumed) | – | – |
| 0 ± 0 | O=C(O)[C@@H]1C[C@@H](O)CN1C(=O)[C@@H]1CCCN1 [Pro-Hyp] (H-Pro-[Hyp]-OH; N-terminus and C-terminus assumed) | – | – |
| – | Gly-Ala-[Hyp] | – | activity against DPP-IV [3]: only Gly-Pro-Hyp showed any activity |
| – | Gly-Pro-Ala | – | activity against DPP-IV [3]: only Gly-Pro-Hyp showed any activity |
| – | HLPLP | 0.018 | – |
| – | LPYPY | – | permeability ([4]; milk-derived peptides, literature): 0.05% |
| – | SDK | 21.68 | – |
| – | YPY | 5.56 | – |
